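Protocol summary: plate cells (96-well), add compound at 5 concentrations, incubate 48 h, interpolate endpoints linearly. At the GI50, growth is halved. Definition used: TGI = concentration required for complete inhibition of growth.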
Columns and labels:
Assay in all cases: NCI tumour cell line growth inhibition, 48 h
HCT-116 colon = test system: HCT-116 colon
SNB-75 CNS = test system: SNB-75 CNS
CCRF-CEM leukemia = test system: CCRF-CEM leukemia
MCF7 breast = test system: MCF7 breast
RXF 393 renal = test system: RXF 393 renal
A549 NSCLC = test system: A549 NSCLC
HCC-2998 colon = test system: HCC-2998 colon
IGROV1 ovarian = test system: IGROV1 ovarian
SK-OV-3 ovarian = test system: SK-OV-3 ovarian
SF-539 CNS = test system: SF-539 CNS
NCI-H522 lung = test system: NCI-H522 lung
SW-620 colon = test system: SW-620 colon
UACC-257 melanoma = test system: UACC-257 melanoma
OVCAR-8 ovarian = test system: OVCAR-8 ovarian
T-47D breast = test system: T-47D breast
NCI-H226 lung = test system: NCI-H226 lung
ACHN renal = test system: ACHN renal
BT-549 breast = test system: BT-549 breast
SN12C renal = test system: SN12C renal
COLO 205 colon = test system: COLO 205 colon
CAKI-1 renal = test system: CAKI-1 renal
SF-295 CNS = test system: SF-295 CNS
NCI-H23 lung = test system: NCI-H23 lung
SK-MEL-28 melanoma = test system: SK-MEL-28 melanoma
K-562 leukemia = test system: K-562 leukemia
SNB-19 CNS = test system: SNB-19 CNS
SF-268 CNS = test system: SF-268 CNS
HOP-62 NSCLC = test system: HOP-62 NSCLC
MDA-MB-231 breast = test system: MDA-MB-231 breast
MDA-MB-435 = test system: MDA-MB-435
UO-31 renal = test system: UO-31 renal
SK-MEL-5 melanoma = test system: SK-MEL-5 melanoma
DU-145 prostate = test system: DU-145 prostate
HOP-92 NSCLC = test system: HOP-92 NSCLC
HCT-15 colon = test system: HCT-15 colon
UACC-62 melanoma = test system: UACC-62 melanoma
OVCAR-5 ovarian = test system: OVCAR-5 ovarian
RPMI-8226 leukemia = test system: RPMI-8226 leukemia
NCI-H460 lung = test system: NCI-H460 lung
HT29 colon = test system: HT29 colon
MOLT-4 leukemia = test system: MOLT-4 leukemia
786-0 renal = test system: 786-0 renal
EKVX NSCLC = test system: EKVX NSCLC
KM12 colon = test system: KM12 colon
HS 578T breast = test system: HS 578T breast
U251 CNS = test system: U251 CNS
SK-MEL-2 melanoma = test system: SK-MEL-2 melanoma
OVCAR-4 ovarian = test system: OVCAR-4 ovarian
LOX IMVI melanoma = test system: LOX IMVI melanoma
OVCAR-3 ovarian = test system: OVCAR-3 ovarian
PC-3 prostate = test system: PC-3 prostate
M14 melanoma = test system: M14 melanoma
NCI/ADR-RES ovarian = test system: NCI/ADR-RES ovarian

Work on `Cc1nc2c(Br)cc(Br)cc2c(=O)n1-c1nnc(-c2cccc(Cl)c2Cl)c(N)n1` yielded a GI50 (HCT-116 colon) of 12.8 µM, a TGI (HCT-116 colon) of 34.9 µM and a GI50 (SNB-75 CNS) of 33.6 µM. For the same compound, the TGI (SNB-75 CNS) was > 100 µM, the GI50 (CCRF-CEM leukemia) was 19.3 µM and the TGI (CCRF-CEM leukemia) was > 100 µM. The GI50 (MCF7 breast) was 26.7 µM, the TGI (MCF7 breast) was > 100 µM and the GI50 (RXF 393 renal) was 26.2 µM. For the same compound, the TGI (RXF 393 renal) was > 100 µM, the GI50 (A549 NSCLC) was 25.6 µM and the TGI (A549 NSCLC) was 85.1 µM. The GI50 (HCC-2998 colon) was 17.6 µM, the TGI (HCC-2998 colon) was 41.3 µM and the GI50 (IGROV1 ovarian) was 15 µM. The TGI (IGROV1 ovarian) was 55.1 µM, the GI50 (SK-OV-3 ovarian) was 24.9 µM and the TGI (SK-OV-3 ovarian) was > 100 µM. It also gave a GI50 (SF-539 CNS) of 21.6 µM, a TGI (SF-539 CNS) of 60 µM and a GI50 (NCI-H522 lung) of 12.8 µM. The TGI (NCI-H522 lung) was 54.6 µM, the GI50 (SW-620 colon) was 33.8 µM and the TGI (SW-620 colon) was > 100 µM. For the same compound, the GI50 (UACC-257 melanoma) was 24.5 µM, the TGI (UACC-257 melanoma) was 65.1 µM and the GI50 (OVCAR-8 ovarian) was 18.7 µM. For the same compound, the TGI (OVCAR-8 ovarian) was 60.7 µM, the GI50 (T-47D breast) was 55.2 µM and the TGI (T-47D breast) was > 100 µM. It also gave a GI50 (NCI-H226 lung) of 21.3 µM, a TGI (NCI-H226 lung) of 59.6 µM and a GI50 (ACHN renal) of 19.5 µM. For the same compound, the TGI (ACHN renal) was 56.1 µM, the GI50 (BT-549 breast) was 29.3 µM and the TGI (BT-549 breast) was > 100 µM. It also gave a GI50 (SN12C renal) of 19 µM, a TGI (SN12C renal) of 62 µM and a GI50 (COLO 205 colon) of 32.9 µM. For the same compound, the TGI (COLO 205 colon) was > 100 µM, the GI50 (CAKI-1 renal) was 28.5 µM and the TGI (CAKI-1 renal) was 80.6 µM. For the same compound, the GI50 (SF-295 CNS) was 13.2 µM, the TGI (SF-295 CNS) was 41.1 µM and the GI50 (NCI-H23 lung) was 23.4 µM. For the same compound, the TGI (NCI-H23 lung) was 65.5 µM, the GI50 (SK-MEL-28 melanoma) was 65.4 µM and the TGI (SK-MEL-28 melanoma) was > 100 µM. The GI50 (K-562 leukemia) was 3.4 µM, the TGI (K-562 leukemia) was 22.6 µM and the GI50 (SNB-19 CNS) was 42 µM. For the same compound, the TGI (SNB-19 CNS) was > 100 µM, the GI50 (SF-268 CNS) was 45.5 µM and the TGI (SF-268 CNS) was > 100 µM. It also gave a GI50 (HOP-62 NSCLC) of 7.08 µM, a TGI (HOP-62 NSCLC) of 28.2 µM and a GI50 (MDA-MB-231 breast) of 13.9 µM. It also gave a TGI (MDA-MB-231 breast) of 49.5 µM, a GI50 (MDA-MB-435) of 3.8 µM and a TGI (MDA-MB-435) of 14.3 µM. For the same compound, the GI50 (UO-31 renal) was 31 µM, the TGI (UO-31 renal) was > 100 µM and the GI50 (SK-MEL-5 melanoma) was 17.2 µM. The TGI (SK-MEL-5 melanoma) was 39 µM, the GI50 (DU-145 prostate) was 27.8 µM and the TGI (DU-145 prostate) was > 100 µM. The GI50 (HOP-92 NSCLC) was 42.4 µM, the TGI (HOP-92 NSCLC) was > 100 µM and the GI50 (HCT-15 colon) was 15.4 µM. For the same compound, the TGI (HCT-15 colon) was 50.9 µM, the GI50 (UACC-62 melanoma) was 13.4 µM and the TGI (UACC-62 melanoma) was 37.3 µM. The GI50 (OVCAR-5 ovarian) was 26.6 µM, the TGI (OVCAR-5 ovarian) was 74.5 µM and the GI50 (RPMI-8226 leukemia) was 9.39 µM. For the same compound, the TGI (RPMI-8226 leukemia) was 87 µM, the GI50 (NCI-H460 lung) was 20.3 µM and the TGI (NCI-H460 lung) was > 100 µM. For the same compound, the GI50 (HT29 colon) was 30.3 µM, the TGI (HT29 colon) was > 100 µM and the GI50 (MOLT-4 leukemia) was 15.3 µM. It also gave a TGI (MOLT-4 leukemia) of 62.1 µM, a GI50 (786-0 renal) of 18.4 µM and a TGI (786-0 renal) of 48.2 µM. For the same compound, the GI50 (EKVX NSCLC) was 22.1 µM, the TGI (EKVX NSCLC) was > 100 µM and the GI50 (KM12 colon) was 11.4 µM. The TGI (KM12 colon) was 40.3 µM, the GI50 (HS 578T breast) was 16 µM and the TGI (HS 578T breast) was 47.2 µM. For the same compound, the GI50 (U251 CNS) was 21.7 µM, the TGI (U251 CNS) was 72.5 µM and the GI50 (SK-MEL-2 melanoma) was 27.4 µM. The TGI (SK-MEL-2 melanoma) was > 100 µM, the GI50 (OVCAR-4 ovarian) was 84.5 µM and the TGI (OVCAR-4 ovarian) was > 100 µM. The GI50 (LOX IMVI melanoma) was 12.9 µM, the TGI (LOX IMVI melanoma) was 39.9 µM and the GI50 (OVCAR-3 ovarian) was 18.6 µM. For the same compound, the TGI (OVCAR-3 ovarian) was 60.4 µM, the GI50 (PC-3 prostate) was 23.6 µM and the TGI (PC-3 prostate) was > 100 µM. For the same compound, the GI50 (M14 melanoma) was 4.8 µM, the TGI (M14 melanoma) was 22.7 µM and the GI50 (NCI/ADR-RES ovarian) was 13.6 µM. For the same compound, the TGI (NCI/ADR-RES ovarian) was 37.5 µM.

Reference: PubChem BioAssay (NCI)
